This is an account of results in patent US20240190824A1, “INHIBITORS OF TREK (TWIK RELATED K+ CHANNELS) CHANNEL FUNCTION” (ONO PHARMACEUTICAL CO., LTD., priority 2019, published 2024).

pIC50: −log10 of the molar value.

For this test, the target named is human TREK-1 (Homo sapiens (Human), UniProt O95069). In words: TREK-1 Thallium (Tl+) flux assay. It counts as cell-based. The note with it: CHO-K1 cells stably expressing human TREK-1.
Chain of human TREK-1 (O95069 whole entry): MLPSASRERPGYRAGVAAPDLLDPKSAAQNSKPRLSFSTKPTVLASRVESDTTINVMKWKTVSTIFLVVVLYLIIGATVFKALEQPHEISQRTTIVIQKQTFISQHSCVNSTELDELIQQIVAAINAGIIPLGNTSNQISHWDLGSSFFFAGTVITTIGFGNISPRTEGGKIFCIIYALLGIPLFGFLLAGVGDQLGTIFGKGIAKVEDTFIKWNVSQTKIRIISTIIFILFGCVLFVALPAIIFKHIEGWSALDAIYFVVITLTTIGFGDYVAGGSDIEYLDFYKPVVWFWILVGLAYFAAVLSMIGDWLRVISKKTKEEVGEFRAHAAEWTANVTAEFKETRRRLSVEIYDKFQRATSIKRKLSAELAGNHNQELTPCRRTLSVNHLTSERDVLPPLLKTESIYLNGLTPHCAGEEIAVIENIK
The compound `Cc1cc(C#Cc2ccccc2)cnc1NC(=O)c1cc(-c2c(C)cnn2C)ccc1Cl` [Compound 76, 2-chloro-5-(2,4-dimethylpyrazol-3-yl)-N-[3-methyl-5-(2-phenylethynyl)-2-pyridyl]benzamide] gave a pIC50 of 6.35. For `Cc1cc(C#Cc2ccccc2)cnc1NC(=O)c1cc(-c2cnn(C3CCOCC3)c2)ccc1Cl` [Compound 65, 2-chloro-N-[3-methyl-5-(2-phenylethynyl)-2-pyridyl]-5-(1-tetrahydropyran-4-ylpyrazol-4-yl)benzamide] the value was 6.70. `CC(C)(C)OC(=O)Nc1ccc(Cl)c(C(=O)Nc2ncc(-c3cc(-c4ccccc4)no3)cc2F)c1` [Compound 96, tert-butyl N-[4-chloro-3-[[3-fluoro-5-(3-phenylisoxazol-5-yl)-2-pyridyl]carbamoyl]phenyl]carbamate] gave a pIC50 of 6.64. For `Cc1cc(C#Cc2ccccc2)cnc1NC(=O)c1cc(NC(=O)OC(C)(C)C)ccc1Cl` [Compound 28, tert-butyl N-[4-chloro-3-[[3-methyl-5-(2-phenylethynyl)-2-pyridyl]carbamoyl]phenyl]carbamate] the value was 6.85; for `Cc1ncc(-c2ccc(Cl)c(C(=O)Nc3ncc(C#Cc4ccccc4)cc3C)c2)s1` [Compound 75, 2-chloro-N-[3-methyl-5-(2-phenylethynyl)-2-pyridyl]-5-(2-methylthiazol-5-yl)benzamide], 6.35; for `Cc1cc(C)n(C(=O)c2ccc(Cl)c(C(=O)Nc3ncc(C#Cc4ccccc4)cc3C)c2)n1` [Compound 72, 2-chloro-5-(3,5-dimethylpyrazole-1-carbonyl)-N-[3-methyl-5-(2-phenylethynyl)-2-pyridyl]benzamide], 6.44. The compound `Cc1cc(C#Cc2ccccc2)cnc1NC(=O)c1cc(NC(=O)[C@@H]2C[C@H]2C)ccc1Cl` [Compound 36, 2-chloro-5-[[(1R,2R)-2-methylcyclopropanecarbonyl]amino]-N-[3-methyl-5-(2-phenylethynyl)-2-pyridyl]benzamide] gave a pIC50 of 6.38.

Regarding `CC(C)(C)OC(=O)Nc1ccc(Cl)c(C(=O)Nc2c(F)cc(C#Cc3ccccc3)nc2F)c1` [Compound 40, tert-butyl N-[4-chloro-3-[[2,4-difluoro-6-(2-phenylethynyl)-3-pyridyl]carbamoyl]phenyl]carbamate], the pIC50 is 6.33. The result for `Cc1cc(C#Cc2ccccc2)cnc1NC(=O)c1cc(NC(=O)OC(C)(C)C)ccc1F` [Compound 50, tert-butyl N-[4-fluoro-3-[[3-methyl-5-(2-phenylethynyl)-2-pyridyl]carbamoyl]phenyl]carbamate] reads 5.97; that for `Cc1cc(C#Cc2ccccc2)cnc1NC(=O)c1cc(OC[C@@H]2COCCO2)ccc1Cl` [Compound 23, 2-chloro-5-[[(2S)-1,4-dioxan-2-yl]methoxy]-N-[3-methyl-5-(2-phenylethynyl)-2-pyridyl]benzamide], 6.68.

For the compound `Cc1cc(OCc2ccccc2)cc(C)c1NC(=O)c1cc(NC(=O)OC(C)(C)C)ccc1Cl` [Compound 88, tert-butyl (3-((4-(benzyloxy)-2,6-dimethylphenyl)carbamoyl)-4-chlorophenyl)carbamate], the pIC50 is 6.44. For `Cc1cc(-c2noc(-c3ccc(F)cc3)n2)cnc1NC(=O)c1cc(NC(=O)OC(C)(C)C)ccc1Cl` [Compound 95, tert-butyl N-[4-chloro-3-[[5-[5-(4-fluorophenyl)-1,2,4-oxadiazol-3-yl]-3-methyl-2-pyridyl]carbamoyl]phenyl]carbamate] the value was 6.64. `Cc1cc(C#Cc2ccccc2)nc(C)c1NC(=O)c1cc(NC(=O)OC(C)(C)C)ccc1Cl` [Compound 48, tert-butyl N-[4-chloro-3-[[2,4-dimethyl-6-(2-phenylethynyl)-3-pyridyl]carbamoyl]phenyl]carbamate] gave a pIC50 of 6.02. This pIC50 lies 0.62 log units lower than the previous one.

`O=C(Nc1ncc(-c2ccn(-c3ccc(F)cc3)n2)cc1F)c1cc(NC(=O)C2COCCO2)ccc1Cl` (stereo not drawn) [Compound 98, N-[4-chloro-3-[[3-fluoro-5-[1-(4-fluorophenyl)pyrazol-3-yl]-2-pyridyl]carbamoyl]phenyl]1,4-dioxane-2-carboxamide] had a pIC50 of 6.25. For `Cc1cc(C#Cc2ccccc2)cnc1NC(=O)c1cc(NC(=O)C2COCCO2)ccc1Cl` (stereo not drawn) [Compound 31, N-[4-chloro-3-[[3-methyl-5-(2-phenylethynyl)-2-pyridyl]carbamoyl]phenyl]-1,4-dioxane-2-carboxamide] the value was 6.59. Compound `Cc1cc(-c2ccc(-c3ccccc3)s2)cnc1NC(=O)c1cc(NC(=O)OC(C)(C)C)ccc1Cl` [Compound 99, tert-butyl N-[4-chloro-3-[[3-methyl-5-(5-phenyl-2-thienyl)-2-pyridyl]carbamoyl]phenyl]carbamate] gave a pIC50 of 5.74. `Cc1cc(COc2ccccc2)ccc1NC(=O)c1cc(NC(=O)OC(C)(C)C)ccc1Cl` [Compound 26, tert-butyl (4-chloro-3-((2-methyl-4-(phenoxymethyl)phenyl)carbamoyl)phenyl)carbamate]: the pIC50 was 6.17.

On to `Cc1cc(C#Cc2ccccc2)cnc1NC(=O)c1cc(C(=O)N2CC(O)(C(F)(F)F)C2)ccc1Cl` [Compound 79, 2-chloro-5-[3-hydroxy-3-(trifluoromethyl)azetidine-1-carbonyl]-N-[3-methyl-5-(2-phenylethynyl)-2-pyridyl]benzamide], for which the pIC50 is 6.06. The pIC50 values of the last two compounds are within 0.2 log units of each other.

Compound `Cc1cc(C#Cc2ccccc2)cnc1NC(=O)c1cc(-c2cnn(C)c2)ccc1Cl` [Compound 78, 2-chloro-N-[3-methyl-5-(2-phenylethynyl)-2-pyridyl]-5-(1-methylpyrazol-4-yl)benzamide] gave a pIC50 of 6.33. Compared with the last compound, the pIC50 is 0.27 log units higher. For `Cc1cc(C#Cc2ccc(F)cc2)cnc1NC(=O)c1cc(NC(=O)C2CCO2)ccc1Cl` (stereo not drawn) [Compound 12, N-[4-chloro-3-[[5-[2-(4-fluorophenyl)ethynyl]-3-methyl-2-pyridyl]carbamoyl]phenyl]oxetane-2-carboxamide] the value was 6.51. In turn, `Cc1cc(C#Cc2ccccn2)cnc1NC(=O)c1cc(NC(=O)OC(C)(C)C)ccc1Cl` [Compound 15, tert-butyl N-[4-chloro-3-[[3-methyl-5-[2-(2-pyridyl)ethynyl]-2-pyridyl]carbamoyl]phenyl]carbamate] had a pIC50 of 6.43. In the case of `Cc1cc(C#Cc2ccccc2)cnc1NC(=O)c1cc(C(=O)N2CC(F)C2)ccc1Cl` [Compound 73, 2-chloro-5-(3-fluoroazetidine-1-carbonyl)-N-[3-methyl-5-(2-phenylethynyl)-2-pyridyl]benzamide], the pIC50 was 6.41. This pIC50 and that of the compound before are within 0.2 log units of each other. For `O=C(Nc1ncc(C#Cc2ccccc2)cc1F)c1cc(OC[C@H]2COCCO2)ccc1Cl` [Compound 80, 2-chloro-5-[[(2R)-1,4-dioxan-2-yl]methoxy]-N-[3-fluoro-5-(2-phenylethynyl)-2-pyridyl]benzamide] the value was 7.22. For `Cc1cc(C#Cc2ccccc2)cnc1NC(=O)c1cc(OC[C@H]2COCCO2)ccc1Cl` [Compound 21, 2-chloro-5-[[(2R)-1,4-dioxan-2-yl]methoxy]-N-[3-methyl-5-(2-phenylethynyl)-2-pyridyl]benzamide] the value was 6.96.
